# Laboratory results from paper PMC8747639, “Novel Angiotensin-Converting Enzyme Inhibitory Peptides Identified from Walnut Glutelin-1 Hydrolysates: Molecular Interaction, Stability, and Antihypertensive Effects” (Nutrients, 2021).
# No end group written: not given here.
# Assays:
# [1] = test system: spontaneously hypertensive rats (SHRs); experiment: BP measurement after single oral administration in SHR (tail-cuff); assay type: in vivo, rat; settings: single intragastric administration, 0-8 h
# Protocol: (§1) Thirty 10-week-old male spontaneously hypertensive rats (SHRs) and five normal male rats of the same age were used for the experiment. The rats were placed at 25 °C ± 1 °C, relative humidity of 45–55% and a light/dark cycle for 12 h. SHRs were randomly divided into 6 groups after one week of adaptation, while rats in the normal group (NG) were used as controls. The administration was continued for 28 days.
# (§2) Rats in the normal and SHR groups were given 1.0 mL of 0.9% saline per day, while the positive control group was given captopril (10 mg/kg body weight) per day. The ACE inhibitory peptides treatment groups’ low and high doses were fed orally with 5 and 15 mg/kg (based on their body weight) by dissolving the peptides in 1.0 mL of 0.9% normal saline. The rats’ BP was measured by the tail-cuff method. The systolic blood pressure (SBP), diastolic blood pressure (DBP), and heart rate of all rats were measured after a single oral administration (0–8 h) and weekly (0–4 weeks). All measurements were repeated at least three times so the average value could be calculated.
# [2] = test system: spontaneously hypertensive rats (SHRs); experiment: BP measurement during four weeks of oral administration in SHR (tail-cuff); assay type: in vivo, rat; settings: daily oral; for SBP compared with the SHRs group after one week of oral administration: peptides 5 and 15 mg/kg, p < 0.01
# Protocol: as §1, §2
# [3] = test system: serum ET-1, NO, ACE, Ang II, AGT, ALD; experiment: Serum ET-1, NO, ACE, Ang II, AGT and ALD in SHR (ELISA / NO kit); assay type: in vivo, rat; settings: 28 days oral administration; for serum ACE level of the SHR control group compared with the treated group / serum AGT level of the SHR control group compared with the treated group / serum ALD level of the SHR control group compared with the treated group / serum AngII level of the SHR control group compared with the treated group: p < 0.05
# Description: (§3) The Grain, Oil and Protein Engineering Laboratory of Shaanxi Normal University (Xi’an, China) provided the defatted walnut meal. ACE (from rabbit lung) and hippuryl-histidyl-leucine (HHL) were purchased from Sigma Co., St. Louis, MO, USA. Pepsin (3 × 10^3 U/g) was obtained from Solarbio Science & Technology, Co., Ltd. (Beijing, China). High-performance liquid chromatography grade acetonitrile and trifluoroacetic acid were purchased from Fischer Scientific Co. (Waltham, MA, USA). The enzyme-linked immunosorbent assay kit for the detection of ACE, angiotensinogen (AGT), aldosterone (ALD), and Endothelin-1(ET-1) was purchased from Jiangsu Jingmei Biotechnology Co., Ltd. (YanCheng, China). The enzyme-linked immunosorbent assay kit for the detection of Ang II was obtained from Shanghai Kexing Biotechnology Co., Ltd., (Shanghai, China). and the nitric oxide (NO) detection kit was a product of Nanjing Jiancheng Institute of Biological Engineering (Nanjing, China), and other chemical reagents used in the experiment were of analytical grade.
# The upper serum samples were obtained by centrifugation at 3000× g at 4 °C for 10 min after the blood was taken from the abdominal aorta of all rats. The samples were stored at −20 °C, and the serum expression was detected using the ELISA kit (double antibody sandwich enzyme-linked immunosorbent assay).
# ACE (from rabbit lung) = target: T1, ACE (from rabbit lung) (Oryctolagus cuniculus, UniProt P12822); experiment: ACE inhibitory activity (HHL substrate, absorbance); assay type: biochemical
# T1 construct: ACE (from rabbit lung) and hippuryl-histidyl-leucine (HHL) were purchased from Sigma Co; purchased Sigma Co., St. Louis, MO, USA; host or cells: rabbit lung (tissue-derived)
# T1 sequence (P12822 34-1310): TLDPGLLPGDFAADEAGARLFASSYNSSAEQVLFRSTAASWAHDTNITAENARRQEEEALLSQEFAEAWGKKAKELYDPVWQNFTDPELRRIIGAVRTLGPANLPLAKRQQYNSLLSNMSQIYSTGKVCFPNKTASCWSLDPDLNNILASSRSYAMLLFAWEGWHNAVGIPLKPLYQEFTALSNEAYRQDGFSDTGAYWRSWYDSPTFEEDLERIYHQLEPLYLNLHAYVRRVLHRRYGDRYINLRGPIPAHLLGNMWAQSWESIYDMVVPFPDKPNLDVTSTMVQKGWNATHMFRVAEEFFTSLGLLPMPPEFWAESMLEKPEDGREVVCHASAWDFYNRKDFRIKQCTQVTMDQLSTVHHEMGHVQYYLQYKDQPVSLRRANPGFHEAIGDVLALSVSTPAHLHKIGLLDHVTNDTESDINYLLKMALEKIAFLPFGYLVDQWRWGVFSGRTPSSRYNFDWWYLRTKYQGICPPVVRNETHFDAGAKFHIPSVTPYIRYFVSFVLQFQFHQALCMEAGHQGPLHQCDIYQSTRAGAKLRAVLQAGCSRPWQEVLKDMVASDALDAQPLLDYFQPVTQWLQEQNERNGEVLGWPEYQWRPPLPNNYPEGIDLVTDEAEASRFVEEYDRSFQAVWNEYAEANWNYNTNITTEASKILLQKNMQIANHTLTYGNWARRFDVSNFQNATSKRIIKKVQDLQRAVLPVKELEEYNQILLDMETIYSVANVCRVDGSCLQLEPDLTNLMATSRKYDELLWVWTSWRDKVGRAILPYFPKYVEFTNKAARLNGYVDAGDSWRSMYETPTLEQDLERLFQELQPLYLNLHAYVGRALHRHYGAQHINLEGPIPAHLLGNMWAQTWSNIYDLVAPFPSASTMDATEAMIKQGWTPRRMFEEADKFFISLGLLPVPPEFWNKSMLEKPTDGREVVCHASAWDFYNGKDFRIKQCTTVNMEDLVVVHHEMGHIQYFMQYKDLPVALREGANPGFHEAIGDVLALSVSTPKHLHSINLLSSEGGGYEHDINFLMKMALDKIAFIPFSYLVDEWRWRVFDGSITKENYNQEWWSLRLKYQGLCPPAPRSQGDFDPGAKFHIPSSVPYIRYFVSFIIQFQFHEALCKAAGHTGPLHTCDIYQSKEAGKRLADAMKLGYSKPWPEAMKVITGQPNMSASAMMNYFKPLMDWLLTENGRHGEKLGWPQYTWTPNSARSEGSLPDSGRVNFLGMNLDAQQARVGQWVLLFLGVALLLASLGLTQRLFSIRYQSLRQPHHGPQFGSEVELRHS
# Description: as §3
# Following a previous method reported by Zheng et al. (2017), we could determine the ACE inhibitory activity of glutelin-1 hydrolysate, separated fractions, active peptides, and all the other samples with 1.0 mg/mL Captopril as a positive control. The IC50 value (the concentrationof the inhibitory peptide (μM) had to inhibit 50% of the ACE activity) was calculated by linear regression of the curve.
# The following formula was used to calculate the ACE inhibition rate (%): ACE inhibition rate(%)=(1-As/Ac)×100 where Ac represents ACE solution’s absorbance without an inhibitor and As represents the mixture containing samples.
# pepsin and trypsin = experiment: GI digestion stability of the synthesized peptides (pepsin, trypsin), read out as ACE inhibitory activity; assay type: in vitro ADME; settings: pepsin 1 mg/mL pH 2.0 37 °C 3 h, or trypsin 1.0 mg/mL pH 8.0 37 °C 4 h
# Protocol: We conducted a GI digestion stability analysis of the synthesized peptides according to the method proposed by Khueychai et al. (2018) with slight modifications. Briefly, the peptide solution was incubated with 1 mg/mL of pepsin solution (0.1 M HCl, pH 2.0) at 37 °C for 3 h. Subsequently, the pH value of the mixed solution was adjusted to 8.0 with 1.0 M NaOH, and 1.0 mg/mL of trypsin added and incubated at 37 °C for 4 h. Finally, the ACE inhibitory activity of the reaction solution could be determined after boiling for 10 min, cooling to room temperature, and centrifuging for 15 min at 10,000× g.
# [4] = Temperature, pH, metal ion, sugar and salt treatment stability of the synthesized peptides, read out as ACE inhibition rate; assay type: physicochemical; settings: 1.0 mg/mL peptide
# Protocol: The effect of temperature, pH, metal ion, sugar, and salt treatments on the stabilities of two synthesized peptides, were determined by incubating 1.0 mg/mL of VERGRRITSV and FVIEPNITPA at 20 °C, 40 °C, 60 °C, 80 °C, and 100 °C for 2 h; 37 °C for 2 h at pH 2, 4, 6, 8, and 10; with 100 μg/mL of KCl, CaCl2, ZnSO4, MgSO4, and FeSO4 solution at 37 °C for 2 h; with glucose solutions of 2%, 4%, 8%, and 12% at 37 °C for 30 min; with NaCl solutions of 2%, 4%, 8%, and 12% at 37 °C for 30 min, respectively. The ACE inhibition rate was measured immediately after incubation.
# [5] = captopril 10 mg/kg, peptides low dose 5 mg/kg, decline reached a maximum in the second week
# [6] = NaCl solutions 2-12%, 37 °C for 30 min, read-out ACE inhibition rate
compound,measurement,setting,value
"C[C@H](CS)C(=O)N1CCC[C@H]1C(=O)O [captopril, reference compound]",maximal reduction in SBP,[1]; captopril 10 mg/kg,29.5 mmHg
same,SBP compared with the SHRs group after one week of oral administration,[2]; captopril 10 mg/kg,significantly lower
same,DBP course during continuous administration,[2]; [5],began to decrease after one week of continuous administration
same,serum ACE level of the SHR control group compared with the treated group,[3]; ELISA,significantly higher
same,serum AGT level of the SHR control group compared with the treated group,[3]; ELISA,significantly higher
same,serum ALD level of the SHR control group compared with the treated group,[3]; ELISA,significantly higher
same,serum AngII level of the SHR control group compared with the treated group,[3]; ELISA,significantly higher
"FVIEPNITPA [FVIEPNITPA, Phe-Val-Ile-Glu-Pro-Asn-Ile-Thr-Pro-Ala]",IC50,"ACE (from rabbit lung); calculated by linear regression of the curve, read-out: IC50 on angiotensin converting enzyme (ACE)",6.36 µM
same,ACE inhibitory activity compared among fractions or with the glutelin-1 hydrolysate (in words),"ACE (from rabbit lung); fractions from Sephadex G-15 (1.0 mg/mL) or RP-HPLC, control glutelin-1 hydrolysate before separation",highest ACE inhibitory activity
same,maximal reduction in SBP,[1]; high dose 15 mg/kg,30.4 mmHg
same,maximal reduction in SBP,[1]; low dose 5 mg/kg,23.0 mmHg
same,SBP compared with the SHRs group after one week of oral administration,[2]; captopril 10 mg/kg,significantly lower
same,DBP course during continuous administration,[2]; [5],began to decrease after one week of continuous administration
same,DBP course during continuous administration,[2]; high dose 15 mg/kg,began to decrease in the second week after administration
same,serum ET-1 levels,"[3]; ELISA, SHR control significantly higher than the other groups (p < 0.01)",low ET-1 levels
same,serum ACE level of the SHR control group compared with the treated group,[3]; ELISA,significantly higher
same,serum AGT level of the SHR control group compared with the treated group,[3]; ELISA,significantly higher
same,serum ALD level of the SHR control group compared with the treated group,[3]; ELISA,significantly higher
same,serum AngII level of the SHR control group compared with the treated group,[3]; ELISA,significantly higher
same,serum NO content,"[3]; NO detection kit, SHR control significantly lower than treated groups (p < 0.05)",equivalent to that of the captopril group
same,ACE inhibitory activity under pepsin or trypsin digestion,pepsin and trypsin,could still maintain high ACE inhibitory activity
same,"stability of ACE inhibitory activity with metal ions K+, Ca2+ and Mg2+","[4]; 100 μg/mL KCl, CaCl2, MgSO4, 37 °C for 2 h, read-out ACE inhibition rate",showed stability
same,ACE inhibitory activity after temperature treatment,"[4]; 20 °C-60 °C for 2 h, read-out ACE inhibition rate",did not change much
same,effect of change of pH value on ACE inhibitory activity,"[4]; 37 °C for 2 h at pH 2, 4, 6, 8 and 10, read-out ACE inhibition rate",no significant effect
same,ACE inhibition rate after temperature treatment,[4]; 80 °C for 2 h,above 80%
same,ACE inhibition rate after temperature treatment,[4]; 100 °C for 2 h,about 70%
same,stability of ACE inhibitory activity under high-concentration salt conditions,[4]; [6],less stable
same,stability of ACE inhibitory activity under low-concentration salt conditions,[4]; [6],good stability
same,stability of ACE inhibitory activity at low glucose concentration,"[4]; glucose solutions 2-12%, 37 °C for 30 min, low concentrations, read-out ACE inhibition rate",showed stability
